# Values quoted from earlier work, collected in US6610471B1, “Methods and compositions to investigate infection by hepatitis B virus and agents to prevent and treat the infection” (priority 1998, dated 2003).
# Test system: chronic HBV infection
# Details: patients receiving interferon-α treatment, long-term studies; cited from earlier work
substance,measurement,value
interferon-α,patients with loss of circulating HBV antigens and improved survival rate,about 30 % of patients
